Laboratory results: patent US8759295B2, “Peptide-peptidase inhibitor conjugates and methods of using same” (Amylin Pharmaceuticals, LLC, priority 2006, dated 2014)
Where two headings read alike, the source gives them in different places.

Legend:
plasma carboxypeptidase = assay: Carboxypeptidase activity assay in human plasma, PYY(3-35) formation; assay type: biochemical; settings: for inhibition of formation of PYY(3-35): 0.5 mM, human plasma
Procedure: Carboxypeptidase activity assays were performed in the presence of various agents to test for carboxypeptidase inhibitor activity of the agents.
The remainder of the sample was placed in an incubator at 37° C., mixing at 600 RPM for sixty minutes. At 10 minute intervals, a 100 μL sample of the mixture was removed and transferred to a separate microcentrifuge tubes. Following the transfer of the 100 μL sample at the zero time point and each 10 minute interval, each collected sample was extracted by slow addition of 100 μl cold 0.2% formic acid:acetonitrile, while mixing. After addition of the acetonitrile solution, the sample was vortex mixed at high speed for 15 seconds. The extracted samples were stored at −20° C. for at least 20 minutes and then centrifuged at 11,000×g for 10 minutes at 5° C. The supernatant of each sample was transferred to a new microcentrifuge tube, centrifuged again, and finally transferred for LC/MS analysis. The MS analysis was a Q1 single ion monitoring method that detects the most intense ion of the parent molecule and the peptide fragment of interest.

[1] = human, kidney or brush border membranes, 4 h, pH 7.4
Procedure: The tubes were incubated in VorTemp 56™ (Eurotech Labs, UK) at 37° C. vortexed at 500 RPM. At time points of 0, 1, 2, 3, 4, and 5 hours, 200 μl STOP solution (50% ACN, 1% formic acid) was added to a given tube, and the samples were allowed to incubate until the end of the experiment. The samples were collected after 5 hours, centrifuged, and 200 μl of the supernatants were transferred into mass spectrometry vials. The intensities of the mother ions in each vial were analyzed with API 150EX™ mass spectrometer (Applied Biosystems, Foster City, Calif.) and quantified using the ANALYST™ program.
The hKBBM assay was also performed in the presence of valinepyrrolidide, a DPP-IV inhibitor.

NIH/Swiss mice = assay: Oral glucose tolerance test (OGTT), glucose lowering; settings: IP; for glucose lowering in OGTT (FIGS. 7, 8): 2 hour fasted mice
Recombinant DPP-IV [2] = molecular target: T1, Recombinant DPP-IV (Homo sapiens, UniProt P27487); assay: DPP-IV resistance assay by mass spectrometry
Procedure: The peptides were then desalted and concentrated on a C18 peptide micro trap (Michrom Bioresources, Inc., Auburn, Calif.) prior to introduction to a LTQ FT™ mass spectrometer (Thermo-Electron Corp., Waltham, Mass.) via an autosampler (Michrom Bioresources, Inc.). Peptides were eluted from a C5 packed 75 μm fused silica pico-frit column (New Objective, Inc., Woburn, Mass.) using a 5-60% acetonitrile/water gradient over 50 minutes at a flow rate of 500 nl/min. Extracted ion mass windows for the calculated m/z values of the most dominant charge states were used to search for both the parent compound and the theoretical hydrolyzed products within a given chromatogram. Exact mass was confirmed for each charge state by FT. The percentage of hydrolysis catalyzed by DPP-IV was estimated by dividing the area of product ions by the area of the total (parent+product) ions.
The estimated cleavage product conversion is based on the ratio of the ion extract area (indicated on top of the peaks) for [product ion]^5+ over that for total ions ([Mother Ion]^5++[product ion]^5+). The m/z ratios used to search for the expected ions are listed on the right side of the plots.

Recombinant DPP-IV [3] = molecular target: T1, Recombinant DPP-IV; design: purchased Chemicon International, Inc., Temecula, Calif; settings: Leiting et al. (2003); read-out: DPP-IV IC50, published value; cited from earlier work
[4] = tested on: Dahl salt-sensitive (DSS) male rats; assay: Congestive heart failure (CHF) in vivo assay; settings: week 5, high-salt diet, 10 μg/kg/day sc infusion
Procedure: In this assay, Dahl salt-sensitive (DSS) male rats were weaned at 21 days of age, maintained on a low-salt (LS) diet (0.2% NaCl) for 2 weeks. Rats were anesthetized with ketamine/xylazine (50 mg/kg/10 mg/kg, IP) and telemetry transmitters (Data Sciences, Inc.) were inserted to the aortic artery when rats were at 5 weeks of age. After surgery, the rats were allowed 10 days to recuperate before their BP (systolic and diastolic pressures) was recorded.
HS control animals (n=10 rats) were administered vehicle (50% DMSO) and fed HS in the same manner. LS control animals (n=5 rats) were maintained on the LS diet.

T1 sequence (P27487 whole entry, species assumed, the tested form may be a part): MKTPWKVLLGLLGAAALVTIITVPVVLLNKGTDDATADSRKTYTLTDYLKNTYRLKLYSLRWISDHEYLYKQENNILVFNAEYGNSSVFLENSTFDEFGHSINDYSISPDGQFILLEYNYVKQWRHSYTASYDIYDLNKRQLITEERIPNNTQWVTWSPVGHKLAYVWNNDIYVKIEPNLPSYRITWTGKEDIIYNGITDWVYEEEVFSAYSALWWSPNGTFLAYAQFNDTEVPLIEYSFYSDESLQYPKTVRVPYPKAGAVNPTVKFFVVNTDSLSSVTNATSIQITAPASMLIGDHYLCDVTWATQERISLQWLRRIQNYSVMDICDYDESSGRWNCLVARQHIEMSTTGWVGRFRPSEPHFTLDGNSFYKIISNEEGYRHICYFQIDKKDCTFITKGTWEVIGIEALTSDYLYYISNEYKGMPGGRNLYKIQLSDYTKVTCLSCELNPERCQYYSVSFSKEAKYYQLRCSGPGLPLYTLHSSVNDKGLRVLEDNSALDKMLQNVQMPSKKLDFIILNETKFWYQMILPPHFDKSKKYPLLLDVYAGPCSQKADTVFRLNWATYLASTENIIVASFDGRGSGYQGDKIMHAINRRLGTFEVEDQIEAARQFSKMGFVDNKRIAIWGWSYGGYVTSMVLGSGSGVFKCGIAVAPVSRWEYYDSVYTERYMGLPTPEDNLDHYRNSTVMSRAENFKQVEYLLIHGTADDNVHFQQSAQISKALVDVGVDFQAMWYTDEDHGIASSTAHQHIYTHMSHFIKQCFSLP

NCCc1ccc(S(=O)(=O)F)cc1 [AEBSF, 4-(2-aminoethyl)-benzenesulfonylfluoride, reference compound]
inhibition of plasma carboxypeptidase activity (plasma carboxypeptidase; protease inhibitor at 1 mM): inhibited

CC[C@H](C)[C@H](NC(=O)[C@H](Cc1ccccc1)NC(=O)[C@H](CCC(=O)O)NC(=O)[C@H](CCCCN)NC(=O)[C@H](C)NC(=O)[C@H](C)NC(=O)[C@H](CCC(N)=O)NC(=O)CNC(=O)[C@H](CCC(=O)O)NC(=O)[C@H](CC(C)C)NC(=O)[C@H](Cc1ccc(O)cc1)NC(=O)[C@H](CO)NC(=O)[C@H](CO)NC(=O)[C@@H](NC(=O)[C@H](CC(=O)O)NC(=O)[C@H](CO)NC(=O)[C@@H](NC(=O)[C@H](Cc1ccccc1)NC(=O)[C@@H](NC(=O)CNC(=O)[C@H](CCC(=O)O)NC(=O)[C@H](C)NC(=O)[C@H](Cc1c[nH]cn1)NC(=O)COCCOCCNC(=O)COCCOCCNC(=O)[C@@H]1CCCN1C(=O)[C@H](C)NC(CCc1ccccc1)C(=O)O)[C@@H](C)O)[C@@H](C)O)C(C)C)C(=O)N[C@@H](C)C(=O)N[C@@H](Cc1c[nH]c2ccccc12)C(=O)N[C@@H](CC(C)C)C(=O)N[C@H](C(=O)N[C@@H](CCCCN)C(=O)NCC(=O)N[C@@H](CCCNC(=N)N)C(N)=O)C(C)C (stereo partly drawn) [Compound 4984, (R,S)-1-[N^2-(1-carboxy-3-phenylpropyl)-L-ala]-L-pro-8-amino-3,6-dioxaoctanoyl-8-amino-3,6-dioxaoctanoyl-GLP-1-(7-36) amide]
intact conjugate compound present [1]: greater than 80% | glucose lowering in OGTT (FIGS. 7, 8) (NIH/Swiss mice): retain the glucose-lowering activity of GLP-1 | duration of glucose lowering in OGTT (NIH/Swiss mice; 240 minutes sample): prolonged effect 4 hours after dosing

CC[C@H](C)[C@H](NC(=O)[C@H](Cc1ccccc1)NC(=O)[C@H](CCC(=O)O)NC(=O)[C@H](CCCCN)NC(=O)[C@H](C)NC(=O)[C@H](C)NC(=O)[C@H](CCC(N)=O)NC(=O)CNC(=O)[C@H](CCC(=O)O)NC(=O)[C@H](CC(C)C)NC(=O)[C@H](Cc1ccc(O)cc1)NC(=O)[C@H](CO)NC(=O)[C@H](CO)NC(=O)[C@@H](NC(=O)[C@H](CC(=O)O)NC(=O)[C@H](CO)NC(=O)[C@@H](NC(=O)[C@H](Cc1ccccc1)NC(=O)[C@@H](NC(=O)CNC(=O)[C@H](CCC(=O)O)NC(=O)[C@H](C)NC(=O)[C@@H](N)Cc1c[nH]cn1)[C@@H](C)O)[C@@H](C)O)C(C)C)C(=O)N[C@@H](C)C(=O)N[C@@H](Cc1c[nH]c2ccccc12)C(=O)N[C@@H](CC(C)C)C(=O)N[C@H](C(=O)N[C@@H](CCCCN)C(=O)NCC(=O)N[C@@H](CCCNC(=N)N)C(=O)NCC(=O)NCC(=O)NCC(=O)NCCCC[C@H](N)C(=O)N1CCSC1C#N)C(C)C (stereo partly drawn) [Compound 4845, GLP-1-(7-37)-GG-(S)-2,6-diamino-1-(thiazolidin-2-cyano-3-yl)hexan-1-one amide]
DPP-IV catalyzed cleavage product ions (Recombinant DPP-IV [2]): expected product ions were not observed

CCC(C)C(N)C(=O)N1CCCC1C(=O)NC(C(=O)O)C(C)CC (stereo not drawn) [Diprotin A, Ile-Pro-Ile]
IC50 (Recombinant DPP-IV [3]): 3.5 µM

^36N-methyl-Tyr-amide-PYY(34-36) (QRY; HELM PEPTIDE1{Q.R.[meY].[am]}$$$$V2.0; N-terminus assumed; SMILES CN(C(=O)[C@H](CCCNC(=N)N)NC(=O)[C@@H](N)CCC(N)=O)[C@@H](Cc1ccc(O)cc1)C(N)=O) [N-terminal truncation of ^36N-methyl-Tyr-amide-PYY(3-36)]
inhibition of formation of PYY(3-35) (plasma carboxypeptidase): did not inhibit

CC[C@H](C)[C@H](NC(=O)[C@H](Cc1ccccc1)NC(=O)[C@H](CC(C)C)NC(=O)[C@H](CCCNC(=N)N)NC(=O)[C@@H](NC(=O)[C@H](C)NC(=O)[C@H](CCC(=O)O)NC(=O)[C@H](CCC(=O)O)NC(=O)[C@H](CCC(=O)O)NC(=O)[C@H](CC(C)C)NC(=O)[C@H](CCC(N)=O)NC(=O)[C@H](CCCCN)NC(=O)[C@H](CO)NC(=O)[C@H](CC(C)C)NC(=O)[C@H](CC(=O)O)NC(=O)[C@H](CO)NC(=O)[C@@H](NC(=O)[C@H](Cc1ccccc1)NC(=O)[C@@H](NC(=O)CNC(=O)[C@H](CCC(=O)O)NC(=O)CNC(=O)[C@@H](N)Cc1c[nH]cn1)[C@@H](C)O)[C@@H](C)O)C(C)C)C(=O)N[C@@H](CCC(=O)O)C(=O)N[C@@H](Cc1c[nH]c2ccccc12)C(=O)N[C@@H](CC(C)C)C(=O)N[C@@H](CCCCN)C(=O)N[C@@H](CCC(N)=O)C(=O)NCC(=O)NCC(=O)N1CCC[C@H]1C(=O)N[C@@H](CO)C(=O)N[C@@H](CCCCN)C(=O)N[C@@H](CCC(=O)O)C(=O)N[C@H](C(=O)N[C@H](C(=O)N[C@@H](CO)C(=O)NCCOCCOCCOCC(=O)NCCOCCOCC(=O)NCCCC[C@H](NC(CCc1ccccc1)C(=O)O)C(=O)N1CCC[C@H]1C(=O)O)[C@@H](C)CC)[C@@H](C)CC (stereo partly drawn) [Compound 5715]
mean diastolic blood pressure [4]: 112 mmHg | mean heart rate [4]: 381 | mean systolic blood pressure [4]: 161 mmHg

CNC(Cc1ccc(O)cc1)C(N)=O (stereo not drawn) [N-methyl-Tyr-NH2]
inhibition of formation of PYY(3-35) (plasma carboxypeptidase): did not inhibit

CC[C@H](C)[C@H](NC(=O)[C@H](Cc1ccccc1)NC(=O)[C@H](CCC(=O)O)NC(=O)[C@H](CCCCN)NC(=O)[C@H](C)NC(=O)[C@H](C)NC(=O)[C@H](CCC(N)=O)NC(=O)CNC(=O)[C@H](CCC(=O)O)NC(=O)[C@H](CC(C)C)NC(=O)[C@H](Cc1ccc(O)cc1)NC(=O)[C@H](CO)NC(=O)[C@H](CO)NC(=O)[C@@H](NC(=O)[C@H](CC(=O)O)NC(=O)[C@H](CO)NC(=O)[C@@H](NC(=O)[C@H](Cc1ccccc1)NC(=O)[C@@H](NC(=O)CNC(=O)[C@H](CCC(=O)O)NC(=O)[C@H](C)NC(=O)[C@@H](N)Cc1c[nH]cn1)[C@@H](C)O)[C@@H](C)O)C(C)C)C(=O)N[C@@H](C)C(=O)N[C@@H](Cc1c[nH]c2ccccc12)C(=O)N[C@@H](CC(C)C)C(=O)N[C@H](C(=O)N[C@@H](CCCCN)C(=O)NCC(=O)N[C@@H](CCCNC(=N)N)C(=O)NCC(=O)NCC(=O)NCC(=O)NCCCC[C@H](N)C(=O)N1CCSC1)C(C)C [Compound 4844, GLP-1-(7-37)-GG-(S)-2,6-diamino-1-(thiazolidin-3-yl)hexan-1-one amide]
DPP-IV catalyzed cleavage product ions (Recombinant DPP-IV [2]; incubation with DPP-IV): expected product ions were not observed

^36N-methyl-Tyr-amide-PYY(22-36) (ASLRHYLNLVTRQRY; HELM PEPTIDE1{A.S.L.R.H.Y.L.N.L.V.T.R.Q.R.[meY].[am]}$$$$V2.0; N-terminus assumed; SMILES CC(C)C[C@H](NC(=O)[C@H](CO)NC(=O)[C@H](C)N)C(=O)N[C@@H](CCCNC(=N)N)C(=O)N[C@@H](Cc1c[nH]cn1)C(=O)N[C@@H](Cc1ccc(O)cc1)C(=O)N[C@@H](CC(C)C)C(=O)N[C@@H](CC(N)=O)C(=O)N[C@@H](CC(C)C)C(=O)N[C@H](C(=O)N[C@H](C(=O)N[C@@H](CCCNC(=N)N)C(=O)N[C@@H](CCC(N)=O)C(=O)N[C@@H](CCCNC(=N)N)C(=O)N(C)[C@@H](Cc1ccc(O)cc1)C(N)=O)[C@@H](C)O)C(C)C) [N-terminal truncation of ^36N-methyl-Tyr-amide-PYY(3-36)]
inhibition of formation of PYY(3-35) (plasma carboxypeptidase): measurable but lower activity

CC[C@H](C)[C@H](NC(=O)[C@H](Cc1ccccc1)NC(=O)[C@H](CCC(=O)O)NC(=O)[C@H](CCCCN)NC(=O)[C@H](C)NC(=O)[C@H](C)NC(=O)[C@H](CCC(N)=O)NC(=O)CNC(=O)[C@H](CCC(=O)O)NC(=O)[C@H](CC(C)C)NC(=O)[C@H](Cc1ccc(O)cc1)NC(=O)[C@H](CO)NC(=O)[C@H](CO)NC(=O)[C@@H](NC(=O)[C@H](CC(=O)O)NC(=O)[C@H](CO)NC(=O)[C@@H](NC(=O)[C@H](Cc1ccccc1)NC(=O)[C@@H](NC(=O)CNC(=O)[C@H](CCC(=O)O)NC(=O)[C@H](C)NC(=O)[C@H](Cc1c[nH]cn1)NC(=O)COCCOCCNC(=O)[C@@H]1CCCN1C(=O)[C@H](C)NC(CCc1ccccc1)C(=O)O)[C@@H](C)O)[C@@H](C)O)C(C)C)C(=O)N[C@@H](C)C(=O)N[C@@H](Cc1c[nH]c2ccccc12)C(=O)N[C@@H](CC(C)C)C(=O)N[C@H](C(=O)N[C@@H](CCCCN)C(=O)NCC(=O)N[C@@H](CCCNC(=N)N)C(N)=O)C(C)C (stereo partly drawn) [Compound 4983, (R,S)-1-[N^2-(1-carboxy-3-phenylpropyl)-L-ala]-L-pro-8-amino-3,6-dioxaoctanoyl-GLP-1-(7-36) amide]
intact conjugate compound present [1]: greater than 80% | glucose lowering in OGTT (FIGS. 7, 8) (NIH/Swiss mice): retain the glucose-lowering activity of GLP-1
